{"source": "patent EP0461039B1", "about": "“Benzimidazole derivatives, process and intermediates for their preparation, their use as medicaments and pharmaceutical compositions containing them” (HOECHST MARION ROUSSEL, priority 1990, dated 1991)", "key": {"[1]": {"test_system": "angiotensine II sur la veine porte isolée", "assay": "Angiotensin II antagonist activity on the isolated portal vein", "format": "cell-based, rats mâles Wistar", "conditions": "rat portal vein ring, angiotensin II 3.10^-8M, compound added 15 minutes before stimulation, verapamil 1.10^-6M in the bath; read-out: CI50 (the source's name)", "experimental": "La veine porte est prélevée, sur des rats mâles Wistar (350 g environ) (IFFA Crédo Franc) après dislocation cervicale, et mise rapidement dans une solution physiologique (voir ci-dessous) à température ambiante. Un anneau de 1 mm environ est monté dans un bain à organe isolé contenant 20 ml de la solution physiologique suivante (composition en mM : NaCl 118,3 - KCl 4,7 - MgSO4 1,2 - KH2PO4 1,2 - NaHCO3 25 - glucose 11,1 - CaCl2 2,5) le milieu est maintenu à 37°C et oxygéné par un mélange O2 95 %, CO2 5 %. La tension initiale imposée est de 1 g, les anneaux sont laissés au repos pendant 60 à 90 minutes. Afin d'éviter les contractions spontanées, du vérapamil est ajouté au bain d'incubation (1.10^-6M).\nA la fin de la période de repos l'angiotensine II (hypertensine Ciba) 3.10^-8M est ajoutée dans le bain d'incubation et laissée au contact de la préparation pendant 1 minute. Cette opération est répétée chaque 30 minutes, le tissu étant lavé 3 ou 4 fois entre deux stimulations à l'angiotensine. Le composé à étudier est introduit dans le bain 15 minutes avant une nouvelle stimulation par l'angiotensine. Des concentrations croissantes de la molécule étant appliquées, une CI50 (concentration qui produit une inhibition de 50 % de la réponse à l'angiotensine) peut être calculée, celle-ci est exprimée en nanomoles."}, "[2]": {"target": "T1, récepteur de l'angiotensine II (Rattus norvegicus, UniProt P25095)", "T1 construct": "une préparation membranaire fraîche obtenue à partir de foie de rat; from tissue; host or cells: rat liver membranes", "T1 sequence (P25095 1-359)": "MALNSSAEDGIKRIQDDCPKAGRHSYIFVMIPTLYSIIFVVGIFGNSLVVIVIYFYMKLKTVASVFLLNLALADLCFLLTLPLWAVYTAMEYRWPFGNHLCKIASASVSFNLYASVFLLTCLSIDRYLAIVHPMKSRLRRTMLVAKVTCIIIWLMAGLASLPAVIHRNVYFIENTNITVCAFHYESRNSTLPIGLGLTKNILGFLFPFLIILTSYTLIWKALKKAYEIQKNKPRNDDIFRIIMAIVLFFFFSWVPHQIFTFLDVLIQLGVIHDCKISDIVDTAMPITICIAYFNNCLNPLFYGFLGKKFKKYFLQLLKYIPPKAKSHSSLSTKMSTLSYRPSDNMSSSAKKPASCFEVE", "assay": "Angiotensin II receptor binding test (displacement of 125I angiotensin II, rat liver membranes)", "conditions": "fresh rat liver membrane preparation, incubation at 25°C for 150 minutes, read-out: CI50 (the source's name)", "experimental": "On utilise une préparation membranaire fraîche obtenue à partir de foie de rat. Le tissu est broyé au polytron dans un tampon Tris 50 mM pH 7,4 le broyage est suivi de 3 centrifugations à 30 000 g 15' avec reprises intermédiaires des culots dans le tampon Tris pH 7,4.\nLes derniers culots sont remis en suspension dans un tampon d'incubation (Tris 20 mM, NaCl 135 mM, KCl 10 mM, glucose 5 mM, MgCl2 10 mM, fluorure de phényl méthyl sulfonyle 0,3 mM, bacitracine 0,1 mM, bis(triméthylsilyl) acétamide 0,2 %).\nOn répartit des fractions aliquotes de 2 ml dans des tubes à hémolyse et ajoute de la ^125I angiotensine II (25 000 DPM/tube) et le produit à étudier. (Le produit est d'abord testé à 3 x 10^-5M en triple). Lorsque le produit testé déplace de plus de 50 % la radioactivité liée spécifiquement au récepteur, il est testé à nouveau selon une gamme de 7 concentrations afin de déterminer la concentration qui inhibe de 50 % la radioactivité liée spécifiquement au récepteur. On détermine ainsi la concentration inhibitrice 50 %).\nLa liaison non spécifique est déterminée par addition d'un produit de référence soit le produit de l'exemple 94 du brevet européen 0253310 à 10^-5M (en triple). On incube à 25°C pendant 150 minutes, remet au bain-marie à 0°C, 5 minutes, filtre sous vide, rince au tampon Tris pH 7,4 et compte la radioactivité en présence du scintillant Triton. […]"}}, "note": "pIC50: −log10 of the molar value."}
{"compound": "CCCCc1nc2cccc(C(=O)O)c2n1Cc1ccc(-c2ccccc2C(=O)O)cc1", "note": "[Exemple 2, Acide 2-butyl 1-[(2'-carboxybiphényl-4-yl)méthyl] 1H-benzimidazole-7-carboxylique]", "values": [{"measurement": "pIC50", "setting": "[1]", "value": 8.02}, {"measurement": "pIC50", "setting": "[2]", "value": 7.28}]}
